What is called EC50 is the concentration needed to bring the measured effect to its halfway point.

T1 sequence (P20393 with tags, fused parts or gaps DEL324-422): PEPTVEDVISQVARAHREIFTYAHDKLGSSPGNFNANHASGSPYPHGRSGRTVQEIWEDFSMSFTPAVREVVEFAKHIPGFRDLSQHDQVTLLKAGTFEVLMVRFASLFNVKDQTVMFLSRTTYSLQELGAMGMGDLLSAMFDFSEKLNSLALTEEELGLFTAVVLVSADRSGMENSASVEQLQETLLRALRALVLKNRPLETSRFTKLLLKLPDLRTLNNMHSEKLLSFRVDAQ
T1 sequence (Q9Y618 2335-2356 partner limits assumed): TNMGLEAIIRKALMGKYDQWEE

One assay has as its target T1, REV-ERBα LBD (human; residues 281-614 Δ324-422) (Homo sapiens, UniProt P20393, DEL324-422).
T1 construct: 6×Histag-REV-ERBα LBD (human; residues 281-614 Δ324-422); made in house; host or cells: Escherichia coli
Briefly: TR-FRET corepressor interaction assay (REV-ERBα LBD, FITC-SMRT peptide). The class given is biochemical. As to conditions: FITC-SMRT peptide, read-out: REVERBα agonism (EC50 class, FRET assay). In short, it runs like this:
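Compound serial dilutions (in DMSO, triplicate) incubated 2 h at 4 °C; Tb donor excited at 340 nm, emission read at 495 nm and FITC acceptor at 520 nm. TR-FRET ratio (520/495 nm) plotted against ligand concentration and fitted to a sigmoidal dose-response curve.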
(In general: In TR-FRET formats the signal depends on donor and acceptor labels being close together.)
Regarding `CC(C)(C)Cn1cc([C@H](NS(=O)(=O)C2CC2(F)F)C(F)(F)F)c2ccc(-c3ccccc3C(F)(F)F)cc21` (stereo partly drawn) [Example 515, 2,2-difluoro-N—((S)-2,2,2-trifluoro-1-(1-neopentyl-6-(2-(trifluoromethyl)phenyl)-1H-indol-3-yl)ethyl)cyclopropane-1-sulfonamide], the EC50 was in the range of 500 to 3000 nM.

Regarding `CC(C)(C)Cn1cc(CCNS(=O)(=O)C2CC2)c2ccc(-c3cccc(C(F)(F)F)c3Cl)cc21` [Example 485, N-(2-(6-(2-chloro-3-(trifluoromethyl)phenyl)-1-neopentyl-1H-indol-3-yl)ethyl)cyclopropanesulfonamide], the EC50 fell in the range of 500 to 3000 nM.

With `NC(=O)c1cccc(F)c1-c1ccc2c([C@H](NS(=O)(=O)C3CCC3)C(F)(F)F)cn(C3CCC3)c2c1` [Example 439, (S)-2-(3-(1-(cyclobutanesulfonamido)-2,2,2-trifluoroethyl)-1-cyclobutyl-1H-indol-6-yl)-3-fluorobenzamide], the EC50 was 500 to 3000 nM.

As for `[2H]C([2H])(n1cc([C@H](NS(=O)(=O)C2CC2)C(F)(F)F)c2ccc(-c3ccccc3C(F)(F)F)cc21)C(C)(C)C` [Example 564, (S)—N-(1-(1-(2,2-dimethylpropyl-1,1-d2)-6-(2-(trifluoromethyl)phenyl)-1H-indol-3-yl)-2,2,2-trifluoroethyl)cyclopropanesulfonamide], the EC50 was below 500 nM.

Turning to `CC(C)(C)Cn1cc([C@H](NS(=O)(=O)C2CCC2)C(F)(F)F)c2ccc(-c3ccccc3C#N)nc21` [Example 534, (S)—N-(1-(6-(2-cyanophenyl)-1-neopentyl-1H-pyrrolo[2,3-b]pyridin-3-yl)-2,2,2-trifluoroethyl)cyclobutanesulfonamide], the EC50 is below 500 nM.

With `CC(C)(C)Cn1cc([C@H](NS(=O)(=O)C2CCC2)C(F)(F)F)c2cc(F)c(-c3cccc4c3CCCC4)cc21` [Example 479, N-[(1S)-1-[1-(2,2-dimethylpropyl)-5-fluoro-6-tetralin-5-yl-indol-3-yl]-2,2,2-trifluoro-ethyl]cyclobutanesulfonamide], the EC50 was below 500 nM.

In the case of `CC(C)(C)Cn1cc([C@H](NS(=O)(=O)C2CCC2)C(F)(F)F)c2ccc(C3CCCC3)nc21` [Example 427, (S)—N-(1-(6-cyclopentyl-1-neopentyl-1H-pyrrolo[2,3-b]pyridin-3-yl)-2,2,2-trifluoroethyl)cyclobutanesulfonamide], the EC50 was below 500 nM.

For the compound `CC(C)(C)Cn1cc([C@H](NS(=O)(=O)C2CC2)C(F)(F)F)c2cc(F)c(-c3ccccc3C(F)(F)F)nc21` [Example 524, (S)—N-(2,2,2-trifluoro-1-(5-fluoro-1-neopentyl-6-(2-(trifluoromethyl)phenyl)-1H-pyrrolo[2,3-b]pyridin-3-yl)ethyl)cyclopropanesulfonamide], the EC50 is below 500 nM.

The assay is the same for the next values; noted with them: Table 2, read-out: REVERBα agonism (EC50 class, FRET assay).
Take `CC(C)(C)Cn1cc(CCNS(=O)(=O)C2CC2)c2ccc(-c3ccc(Cl)cc3C(F)(F)F)cc21` [Example 394, N-(2-(6-(4-chloro-2-(trifluoromethyl)phenyl)-1-neopentyl-1H-indol-3-yl)ethyl)cyclopropanesulfonamide]: the EC50 is below 500 nM.

For the compound `CC(C)(O)Cn1cc([C@H](NS(=O)(=O)C2CCC2)C(F)(F)F)c2ccc(-c3ccccc3C(F)(F)F)nc21` (racemic) [Example 412, N-[rac-(1S)-2,2,2-trifluoro-1-[1-(2-hydroxy-2-methyl-propyl)-6-[2-(trifluoromethyl)phenyl]pyrrolo[2,3-b]pyridin-3-yl]ethyl]cyclobutanesulfonamide], the EC50 was in the range of 500 to 3000 nM.

For the compound `Cc1c(CCNS(=O)(=O)N(C)C)c2ccc(-c3ccncc3)cc2n1CC(C)C` [Compound 236], the EC50 fell in the range of 500 to 3000 nM.

Consider `CN(C)S(=O)(=O)NCCc1cn(CC(F)(F)F)c2cc(Br)ccc12` [Example 158, ({2-[6-bromo-1-(2,2,2-trifluoroethyl)-1H-indol-3-yl]ethyl}sulfamoyl)dimethylamine], for which the EC50 lay in the range of 500 to 3000 nM.

Consider `CC(C)Cn1cc(CCNS(=O)(=O)N(C)C)c2ccc(OC(C)(C)C)cc21` [Example 119, N′-{2-[6-tert-butoxy-1-(2-methylpropyl)-1H-indol-3-yl]ethyl}-N,N-dimethylsulfuric diamide], for which the half-maximal effective concentration (EC50) is 500 to 3000 nM.

Consider `CC(C)(C)Cc1cn(CCNS(=O)(=O)C2CC2)c2ccc(-c3ccccc3)cc12` [Example 225, N-(2-(3-neopentyl-5-phenyl-1H-indol-1-yl)ethyl)cyclopropanesulfonamide], for which the EC50 was 500 to 3000 nM.

As to `CCNc1ccc2c(CCNS(=O)(=O)N(C)C)cn(CC(C)C)c2c1` [Example 112, N′-{2-[6-ethylamino-1-(2-methylpropyl)-1H-indol-3-yl]ethyl}-N,N-dimethylsulfuric diamide], the EC50 is above 3000 nM.

For the compound `CC(C)(C)Cn1cc([C@H](NS(=O)(=O)C2CC2)C(F)(F)F)c2ccc(-c3ccccc3Cl)cc21` [Example 332, (S)—N-(1-(6-(2-chlorophenyl)-1-neopentyl-1H-indol-3-yl)-2,2,2-trifluoroethyl)cyclopropanesulfonamide], the EC50 was below 500 nM.

For `CN(C)S(=O)(=O)NCCc1cn(Cc2ccc(F)cc2)c2cc(-c3ccncc3)ccc12` [Example 146, N-{2-[6-(pyridin-4-yl)-1-(4-fluorobenzyl)-1H-indol-3-yl]ethyl}-N,N-dimethylsulfuric diamide], the EC50 lay in the range of 500 to 3000 nM.

With `CNS(=O)(=O)N[C@@H](c1cn(CC(C)(C)C)c2cc(-c3ccccc3C(F)(F)F)c(F)cc12)C(F)(F)F` [Example 371], the EC50 fell in the range of 500 to 3000 nM.

Take `CC(C)Cn1cc([C@@H](NS(=O)(=O)C2CC2)C(F)(F)F)c2ccc(-c3ccccc3C(F)(F)F)cc21` [Example 222, (R)—N-(2,2,2-trifluoro-1-(1-isobutyl-6-(2-(trifluoromethyl)phenyl)-1H-indol-3-yl)ethyl)cyclopropanesulfonamide]: the EC50 lay in the range of 500 to 3000 nM.

With `CN(C)S(=O)(=O)NCCn1cc(CC(F)(F)C(F)(F)F)c2cc(Cl)ccc21` [Example 153, N-{2-[5-chloro-3-(2,2,3,3,3-pentafluoropropyl)-1H-indol-1-yl]ethyl}-N,N-dimethylsulfuric diamide], the EC50 lay within 500 to 3000 nM.

`Cc1ccccc1-c1ccc2c(CCNS(=O)(=O)N(C)C)cn(CC(C)C)c2c1` [Example 46, N-{2-[6-(2-methylphenyl)-1-(2-methylpropyl)-1H-indol-3-yl]ethyl}-N,N-dimethylsulfuric diamide]: the EC50 was below 500 nM.

For `O=S(=O)(NCc1cn(CC2CCCC2)c2cc(-c3ccccc3C(F)(F)F)c(F)cc12)C1CC1` [Compound 280], the EC50 was below 500 nM.

`CC(C)(C)Cn1cc(CCNS(=O)(=O)C2CC2)c2ccc(-c3ccc(Cl)cc3Cl)cc21` [Example 397, N-(2-(6-(2,4-dichlorophenyl)-1-neopentyl-1H-indol-3-yl)ethyl)cyclopropanesulfonamide]: the EC50 is below 500 nM.

In the case of `CN(C)S(=O)(=O)NCCc1cn(Cc2cccnc2)c2cc(Br)ccc12` [Example 163, [(2-{6-bromo-1-[(pyridin-3-yl)methyl]-1H-indol-3-yl}ethyl)sulfamoyl]dimethylamine], the EC50 fell in the range of 500 to 3000 nM.

As for `CC(C)Cn1cc(C2CCCN(S(=O)(=O)N(C)C)C2)c2ccc(-c3ccccc3)cc21` (stereo not drawn) [Example 61, 3-(1-isobutyl-6-phenyl-1H-indol-3-yl)-N,N-dimethylpiperidine-1-sulfonamide], the EC50 lay within 500 to 3000 nM.

Regarding `CC(C)Cn1cc(CC(NS(=O)(=O)C(C)C)C(F)(F)F)c2ccc(-c3ccncc3)cc21` (stereo not drawn) [Compound 273], the EC50 was above 3000 nM.

With `CN(C)C(=O)n1cc(CCNS(=O)(=O)N(C)C)c2ccc(-c3ccncc3)cc21` [Example 194, 3-(2-((N,N-dimethylsulfamoyl)amino)ethyl)-N,N-dimethyl-6-(pyridin-4-yl)-1H-indole-1-carboxamide], the EC50 was above 3000 nM.

With `COC(C)(C)Cn1cc([C@H](NS(=O)(=O)C2CCC2)C(F)(F)F)c2ccc(-c3ccccc3C(F)(F)F)nc21` [Example 413, (S)—N-(2,2,2-trifluoro-1-(1-(2-methoxy-2-methylpropyl)-6-(2-(trifluoromethyl)phenyl)-1H-pyrrolo[2,3-b]pyridin-3-yl)ethyl)cyclobutanesulfonamide], the EC50 was below 500 nM.

Consider `CC(CO)(CCl)Cn1cc([C@H](NS(=O)(=O)C2CC2)C(F)(F)F)c2cc(F)c(-c3ccccc3C(F)(F)F)cc21` (stereo partly drawn) [Example 404, N-[(1S)-1-[1-[2-(chloromethyl)-3-hydroxy-2-methyl-propyl]-5-fluoro-6-[2-(trifluoromethyl)phenyl]indol-3-yl]-2,2,2-trifluoro-ethyl]cyclopropanesulfonamide], for which the EC50 was 500 to 3000 nM.

As to `CC(C)Cn1cc(CCNS(=O)(=O)N(C)C)c2ccc(C3CCNCC3)cc21` [Compound 102, dimethyl({2-[1-(2-methylpropyl)-6-(piperidin-4-yl)-1H-indol-3-yl]ethyl}sulfamoyl)amine], the EC50 is above 3000 nM.

On to `CC(C)Cn1cc(CCN(C)S(=O)(=O)N(C)C)c2ccc(C#N)cc21` [Compound 122, 3-{2-[(dimethylsulfamoyl)(methyl)amino]ethyl}-1-(2-methylpropyl)-1H-indole-6-carbonitrile], for which the EC50 was above 3000 nM.

As to `CC(C)(C)Cn1cc(CCNS(=O)(=O)C2CC2)c2ccc(-c3ccc(C(F)(F)F)cc3Cl)cc21` [Example 396, N-(2-(6-(2-chloro-4-(trifluoromethyl)phenyl)-1-neopentyl-1H-indol-3-yl)ethyl)cyclopropanesulfonamide], the EC50 was below 500 nM.

For the compound `CC(C)(C)Cn1cc([C@H](NS(=O)(=O)C2CC2)C(F)(F)F)c2cc(F)c(-c3ccccc3C(F)(F)F)cc21` [Example 319, (S)—N-(2,2,2-trifluoro-1-(5-fluoro-1-neopentyl-6-(2-(trifluoromethyl)phenyl)-1H-indol-3-yl)ethyl)cyclopropanesulfonamide], the EC50 is below 500 nM.

(Values after patent US20230339886A1 (University of Florida Research Foundation, Incorporated, priority 2020, published 2023).)
